Several values for one entry are separate records, joined by “and”; a condition that tells them apart may be missing. Equal values may be shown once. Values belong to the compound of their own block, whether it stands above or below them.
Key:
CHO-K1 cells = assay: Toxicity in RRA (loss of luciferase signal); conditions: toxicity = loss of signal (<0.75 fold increase)
beta amyloid production = assay: Repressor Release Assay (RRA); assay type: cell-based; conditions: for APPI % of Example #98: relative to Example 98; for fold induction at 20 µg/mL: read-out: APPI Fold Increase
Procedure: CHO-K1 cells were cultured in whole DMEM media (DMEM—High Glucose with 10% fetal bovine serum, 1% Non-essential Amino Acids, and 1% Penicillin-Streptomycin) at 37° C. with 5% CO2. Two million cells were plated into 10-cm dishes 24 hrs prior to transfection.
Transient transfections were completed as recommended by Gibco BRL using their Lipofectamine Plus system. First, 6 μg of pRSVO-luc and 6 μg of APP-lacI construct DNA were added to 460 μL Opti-Mem transfection media and incubated with 30 μL Plus reagent for 15 minutes. Then, a lipid mixture of 40 μL Lipofectamine reagent and 460 μL Opti-Mem transfection media was incubated with the DNA-Plus reagent mixture for 15 minutes. During the DNA-lipid incubation, the CHO-K1 cells were washed once and covered in 5.0 mL DMEM media without Penicillin-Streptomycin. The DNA-lipid preparation was then layered onto these cells and incubated at 37° C. overnight.
[…] transfected cells per well (100 μL total volume) were plated into sterile, opaque Packard 96-well Culture-Plates in clear DMEM whole media (DMEM—without phenol red) and incubated at 37° C. with 5% CO2 for 3-5 hours.
Compounds were diluted using two different protocols; one protocol was used for compounds supplied neat (weighed powder in vial) and the other protocol was used for compounds supplied in solution (20 mM in DMSO in 96-well plates). For both protocols, 25 mM Hepes and 25 mM Hepes/1% DMSO were prepared fresh to be used as diluent. The Hepes/DMSO was used as the diluent control on all experimental plates.
The following table depicts the steps for compound dilution (please note that the last step was the addition of compound to cells/media in tissue culture plate).
Because some compounds were present in 96-well format at 20 mM, the following represents the protocol for their dilution (note that an average molecular weight of these compounds was used to calculate these dilutions and as above, the last step was the addition of compound to cells/media in tissue culture plate).
Once the compounds were diluted, they were applied in duplicate on cells in tissue culture plates (prepared above). Cells were incubated with compound at 37° C. with 5% CO2 for an additional 36-48 hours.
Luciferase assays (LucLite reagent, Packard) were performed and were read on a Packard TopCount instrument. Media was removed from each 96-well plate and replaced with 100 μL PBS per well (with Mg^2+ and Ca^2+). An equal volume (100 μL) of the LucLite lysis/substrate buffer was added to each well and the plates were sealed and mixed in the dark on a rotary shaker for 15-30 minutes at room temperature. Luciferase readings were then taken on the TopCount instrument. Measurements were expressed as relative light units (RLU) and are calculated and analyzed in MS Excel as follows: […]

[1] = Conc 20 μg/ml, luciferase activity over diluent control
[2] = Conc 10 μg/ml, luciferase activity over diluent control

Compound: 2-fluoro-N-[(1S)-1-(hydroxy 1-methylethyl]benzenesulfonamide [Example 117]
- (%)APPI Toxicity (CHO-K1 cells; Conc 20 μg/ml): 1 (1=non-toxic)
- APPI Fold Increase (beta amyloid production; [1]): 1.5 fold
- APPI % of Example #98 (beta amyloid production; Conc 20 μg/ml): 31%

Compound: 3,4-dibromo-N-[(11S)-1-(hydroxymethyl)-2,2-dimethylpropyl]benzenesulfonamide [Example 29]
- (%)APPI Toxicity (CHO-K1 cells; Conc 20 μg/ml): 1 (1=non-toxic)
- APPI Fold Increase (beta amyloid production; [1]): 2.1 fold
- APPI % of Example #98 (beta amyloid production; Conc 20 μg/ml): 49.5%

Compound: 3-chloro-N-{(1S)-2-hydroxy-2-isopropenyl-3-methyl-1-[(18)-1-methylpropyl]-3-butenyl}benzenesulfonamide [Example 257]
- (%)APPI Toxicity (CHO-K1 cells; Conc 10 μg/ml): 1 (1=non-toxic)
- (%)APPI Toxicity (CHO-K1 cells; Conc 20 μg/ml): 1 (1=non-toxic)
- APPI Fold Increase (beta amyloid production; [2]): 2.54 fold
- APPI % of Example #98 (beta amyloid production; Conc 10 μg/ml): 94.5%
- APPI Fold Increase (beta amyloid production; [1]): 2.5 fold
- APPI % of Example #98 (beta amyloid production; Conc 20 μg/ml): 68.8%

Compound: 3-chloro-N-{(1S,3E)-2-hydroxy-3-methyl-2-[(1 F)-1-methyl-1-propenyl]-1-[(1S)-1-methylpropyl]-3-pentenyl}benzenesulfonamide [Example 259]
- (%)APPI Toxicity (CHO-K1 cells; Conc 0.3 μg/ml): 1 (1=non-toxic)
- (%)APPI Toxicity (CHO-K1 cells; Conc 1 μg/ml): 1 (1=non-toxic)
- (%)APPI Toxicity (CHO-K1 cells; Conc 3 μg/ml): 1 (1=non-toxic)
- (%)APPI Toxicity (CHO-K1 cells; Conc 10 μg/ml): 1 (1=non-toxic)
- (%)APPI Toxicity (CHO-K1 cells; Conc 20 μg/ml): 1 (1=non-toxic)
- APPI Fold Increase (beta amyloid production; Conc 0.3 μg/ml, luciferase activity over diluent control): 1.7 fold
- APPI % of Example #98 (beta amyloid production; Conc 0.3 μg/ml): 31.1%
- APPI Fold Increase (beta amyloid production; Conc 1 μg/ml, luciferase activity over diluent control): 1.7 fold
- APPI % of Example #98 (beta amyloid production; Conc 1 μg/ml): 31.1%
- APPI Fold Increase (beta amyloid production; Conc 3 μg/ml, luciferase activity over diluent control): 1.7 fold
- APPI % of Example #98 (beta amyloid production; Conc 3 μg/ml): 31.5%
- APPI Fold Increase (beta amyloid production; [2]): 2.19 fold and 1.6 fold and 1.7 fold
- APPI Fold Increase (beta amyloid production; [1]): 4.4 fold
- APPI % of Example #98 (beta amyloid production; Conc 20 μg/ml): 119.7%

Compound: 4-bromo-N-((1S,2 S)-1-{hydroxy-[4-(methylsulfanyl)phenyl]methyl}-2-methylbutyl) benzenesulfonamide [Example 163]
- (%)APPI Toxicity (CHO-K1 cells; Conc 10 μg/ml): 1 (1=non-toxic)
- APPI Fold Increase (beta amyloid production; [2]): 1.64 fold
- APPI % of Example #98 (beta amyloid production; Conc 10 μg/ml): 69.41%

- fold increase in luciferase activity (beta amyloid production; at 10 μg/mL, luciferase activity over diluent control, transfected CHO-K1 cells): 6.0-28.1 fold increase
Compound: C[C@H](NC(=O)Cc1cc(F)cc(F)c1)C(=O)N[C@H](C(=O)OC(C)(C)C)c1ccccc1 [DAPT, reference compound]

Compound: CC[C@H](C)[C@@H](CO)NS(=O)(=O)c1ccccc1Br [Example 1, 2-Bromo-N-[(1S,2S)-1-(hydroxymethyl)-2-methylbutyl]benzenesulfonamide]
- (%)APPI Toxicity (CHO-K1 cells; Conc 20 μg/ml): 1 (1=non-toxic)
- fold induction at 20 µg/mL (beta amyloid production; [1]): 1.6

Compound: CC[C@H](C)[C@@H](CO)NS(=O)(=O)c1cccc(Br)c1 [Example 2, 3-bromo-N-[(1S,2S)-1-(hydroxymethyl)-2-methylbutyl]benzenesulfonamide]
- (%)APPI Toxicity (CHO-K1 cells; Conc 20 μg/ml): 1 (1=non-toxic)
- fold induction at 20 µg/mL (beta amyloid production; [1]): 2.8

Compound: CC[C@H](C)[C@@H](CO)NS(=O)(=O)c1cccc(Cl)c1 [Example 3, 3-chloro-N-[(1S,2S)-1-(hydroxymethyl)-2-methylbutyl]benzenesulfonamide]
- (%)APPI Toxicity (CHO-K1 cells; Conc 20 μg/ml): 1 (1=non-toxic)
- fold induction at 20 µg/mL (beta amyloid production; [1]): 3.6

Compound: CC[C@H](C)[C@@H](CO)NS(=O)(=O)c1ccc(Cl)c2nnoc12 [Example 4, 4-chloro-N-[(1S,2S)-1-(hydroxymethyl)-2-methylbutyl]-1,2,3-benzoxadiazole-7-sulfonamide]
- (%)APPI Toxicity (CHO-K1 cells; Conc 20 μg/ml): 1 (1=non-toxic)
- fold induction at 20 µg/mL (beta amyloid production; [1]): 1.5

Compound: CC[C@H](C)[C@@H](CO)NS(=O)(=O)c1ccc(F)cc1Cl [Example 5, 2-chloro-4-fluoro-N-[(1S,2S)-1-(hydroxymethyl)-2-methylbutyl]benzenesulfonamide]
- (%)APPI Toxicity (CHO-K1 cells; Conc 20 μg/ml): 1 (1=non-toxic)
- fold induction at 20 µg/mL (beta amyloid production; [1]): 2.5

Compound: CC[C@H](C)[C@@H](CO)NS(=O)(=O)c1cc(Cl)ccc1OC [Example 6, 5-chloro-N-[(1S,2S)-1-(hydroxymethyl)-2-methylbutyl]-2-methoxybenzenesulfonamide]
- (%)APPI Toxicity (CHO-K1 cells; Conc 20 μg/ml): 1 (1=non-toxic)
- fold induction at 20 µg/mL (beta amyloid production; [1]): 1.7

Compound: CC[C@H](C)[C@@H](CO)NS(=O)(=O)c1c(C)cccc1Cl [Example 7, 2-chloro-N-[(1S,2S)-1-(hydroxymethyl)-2-methylbutyl]-6-methylbenzenesulfonamide]
- (%)APPI Toxicity (CHO-K1 cells; Conc 20 μg/ml): 1 (1=non-toxic)
- fold induction at 20 µg/mL (beta amyloid production; [1]): 1.6

Compound: CC[C@H](C)[C@@H](CO)NS(=O)(=O)c1cc(Cl)cc(Cl)c1 [Example 8, 3,5-dichloro-N-[(1S,2S)-1-(hydroxymethyl)-2-methylbutyl]benzenesulfonamide]
- (%)APPI Toxicity (CHO-K1 cells; Conc 20 μg/ml): 1 (1=non-toxic)
- fold induction at 20 µg/mL (beta amyloid production; [1]): 2

Compound: CC[C@H](C)[C@@H](CO)N(CCNC(=O)OC(C)(C)C)S(=O)(=O)c1ccc(Cl)cc1 [Example 42, tert-butyl 2-{([4-chlorophenyl)sulfonyl][(1S,2S)-1-(hydroxymethyl)-2-methylbutyl]amino} ethyl carbamate]
- APPI Fold Increase (beta amyloid production; [1]): 1.9 fold
- APPI % of Example #98 (beta amyloid production; Conc 20 μg/ml): 71.7%

Compound: CCCCCCC(O)[C@@H](NS(=O)(=O)c1ccc(F)cc1)[C@@H](C)CC (stereo partly drawn) [Example 128, 4-fluoro-N-{(1S)-2-hydroxy-1-[(1S)-1-methylpropyl]octyl}benzenesulfonamide]
- (%)APPI Toxicity (CHO-K1 cells; Conc 10 μg/ml): 1 (1=non-toxic)

Compound: CCCCCC(O)[C@@H](NS(=O)(=O)c1ccc(F)cc1)[C@@H](C)CC (stereo partly drawn) [Example 129, 4-fluoro-N-{(1S)-2-hydroxy-1-[(1S)-1-methylpropyl]heptyl}benzenesulfonamide]
- (%)APPI Toxicity (CHO-K1 cells; Conc 10 μg/ml): 1 (1=non-toxic)

Compound: CC[C@H](C)[C@H](NS(=O)(=O)c1ccc(Br)cc1)C(O)C(C)(C)C (stereo partly drawn) [Example 149, 4-bromo-N-{(1S)-2-hydroxy-3,3-dimethyl-1-[(1S)-1-methylpropyl]butyl}benzenesulfonamide]
- (%)APPI Toxicity (CHO-K1 cells; Conc 10 μg/ml): 1 (1=non-toxic)

Compound: CC[C@H](C)[C@H](NS(=O)(=O)c1ccc(Br)cc1)C(O)CC(C)C (stereo partly drawn) [Example 150, 4-bromo-N-{(S)-2-hydroxy-4-methyl-1-[(1S)-1-methylpropyl]pentyl}benzenesulfonamide]
- (%)APPI Toxicity (CHO-K1 cells; Conc 10 μg/ml): 1 (1=non-toxic)

Compound: CC[C@H](C)[C@H](NS(=O)(=O)c1ccc(Cl)cc1)C(O)C1CCCC1 (stereo partly drawn) [Example 166, 4-chloro-N-{(1S,2S)-1-[cyclopentyl(hydroxy)methyl]-2-methylbutyl}benzenesulfonamide]
- (%)APPI Toxicity (CHO-K1 cells; Conc 10 μg/ml): 1 (1=non-toxic)

Compound: CCCCCC(O)[C@@H](NS(=O)(=O)c1ccc(Cl)cc1)[C@@H](C)CC (stereo partly drawn) [Example 168, 4-chloro-N-{(1S)-2-hydroxy-1-[(1S)-1-methylpropyl]heptyl}benzenesulfonamide]
- (%)APPI Toxicity (CHO-K1 cells; Conc 10 μg/ml): 1 (1=non-toxic)

Compound: C=CCC(O)[C@@H](NS(=O)(=O)c1ccc(Cl)cc1)[C@@H](C)CC (stereo partly drawn) [Example 175, 4-chloro-N-{(1S)-2-hydroxy-1-[(1S)-1-methylpropyl]-4-pentenyl}benzenesulfonamide]
- (%)APPI Toxicity (CHO-K1 cells; Conc 10 μg/ml): 1 (1=non-toxic)

Compound: CC[C@H](C)[C@H](NS(=O)(=O)c1ccccc1F)C(O)C1CCCC1 (stereo partly shown) [Example 202]
- APPI Fold Increase (beta amyloid production; [2]): 1.62 fold
- APPI % of Example #98 (beta amyloid production; Conc 10 μg/ml): 55.79%

Compound: CCCCCC(O)(CCCCC)[C@@H](NS(=O)(=O)c1ccc(Br)cc1)[C@@H](C)CC [Example 212, 4-bromo-N-{(1S)-2-hydroxy-1-[(1S)-1-methylpropyl]-2-pentylheptyl}benzenesulfonamide]
- (%)APPI Toxicity (CHO-K1 cells; Conc 10 μg/ml): 1 (1=non-toxic)

Compound: CC[C@H](C)[C@H](NS(=O)(=O)c1ccc(Br)cc1)C(O)(CC(C)C)CC(C)C [Example 214, 4-bromo-N-{(1S)-2-hydroxy-2-isobutyl-4-methyl-1-[(1S)-1-methylpropyl]pentyl} benzenesulfonamide]
- (%)APPI Toxicity (CHO-K1 cells; Conc 10 μg/ml): 1 (1=non-toxic)

Compound: CCCCCCC(O)(CCCCCC)[C@@H](NS(=O)(=O)c1ccc(F)cc1)[C@@H](C)CC [Example 236, 4-fluoro-N-{(1S)-2-hexyl-2-hydroxy-1-[(1S)-1-methylpropyl]octyl}benzenesulfonamide]
- (%)APPI Toxicity (CHO-K1 cells; Conc 10 μg/ml): 1 (1=non-toxic)

Compound: CC[C@H](C)[C@H](NS(=O)(=O)c1ccc(F)cc1)C(O)(c1cccc2ccccc12)c1cccc2ccccc12 [Example 248, 4-fluoro-N-((1S,2S)-1-{hydroxy[di(1-naphthyl)]methyl}-2-methylbutyl)benzenesulfonamide]
- (%)APPI Toxicity (CHO-K1 cells; Conc 10 μg/ml): 1 (1=non-toxic)
